Laboratory results reported in patent publication US20240207292A1, “BORONIC ACID COMPOUNDS, COMPOSITIONS AND METHODS” (Trustees of Tufts College, priority 2021, published 2024).
Where two headings read alike, the source gives them in different places.

What was measured:
recombinant human FAP = recombinant human FAP (Homo sapiens (Human), UniProt Q12884); assay: In vitro enzyme IC50 assay, FAP (Example 16); assay type: biochemical; details: 10 min preincubation at 25° C.; Z-Gly-Pro-AMC
Procedure: Biological Materials: For the in vitro IC50 determination assays, recombinant human DPPIV, DPP9, FAP, and PREP were purchased from R&D Systems, and DPP8 was from Biomol International. Buffer systems used were A (25 mM Tris, pH 8.0), B (50 mM Tris, pH 7.5), C (50 mM Tris, 140 mM NaCl, pH 7.5), D (25 mM Tris, 250 mM NaCl, pH 7.5), and E (20 mM Tris, 20 mM KCl, pH 7.4). […] Substrate Specificity Assay. Peptide libraries (0.21 mM) were incubated for 24 h with 1 nM FAP in buffer E at 37° C. The reaction was quenched by the addition of 1.2 N HCl. The samples were analyzed by reverse-phase HPLC-MS on a Thermo Finnigan LCQ Duo, quantifying the peaks in the resulting base peak chromatograms. Relative cleavage values were determined by comparing the postquench abundance of intact peptides to those in the initial library.
In Vitro Enzyme IC50 Assays. Enzymatic activity of DPPIV, DPP8, DPP9, FAP, and PREP was measured at 25° C. on a Molecular Devices M2e multidetection microtiter plate reader, monitoring the fluorescence at an excitation wavelength of 380 nm and an emission wavelength of 460 nm. The substrate was either H-Gly-Pro-AMC for the DPPIV, DPP8, and DPP9 assays or Z-Gly-Pro-AMC for the FAP and PREP assays. […] The final enzyme concentrations were 0.1, 0.8, 0.4, 1.2, and 0.6 nM for DPPIV, DPP8, DPP9, FAP, and PREP, respectively. […] Those prepared in pH 2.0 solution were preincubated at 25° C. for 4 h prior to dilution. Immediately prior to the commencement of the experiment, the 100 mM stocks were further diluted to 10^-3 M in the appropriate assay buffer, from which 1:10 serial dilutions were prepared. All inhibitors were tested in triplicate.

[1] = molecular target: recombinant human fibroblast activation protein (FAP) (Homo sapiens (Human), UniProt Q12884); assay: In vitro assay fibroblast activation protein IC50 (Example 21); assay type: biochemical
Procedure: (§1) The purpose of this assay is to determine the IC50 of various inhibitors against recombinant human dipeptidyl peptidase IV (DPPIV), fibroblast activation protein (FAP) or prolyl oligopeptidase (PREP).
(§2) The assays are conducted in the following steps: • 1 Dissolve the compound in DMSO to a final concentration of 100 mM. From this, prepare a 1 mM stock at pH 7.5 in 50 mM Tris, 140 mM NaCl Buffer (FAP)/pH 7.5 in 25 mM Tris, 250 mM NaCl Buffer/[…]. • 2. Serial dilute (1:10) the 1 mM compound stocks prepared previously into the appropriate assay buffer (FAP: 50 mM Tris, 140 mM NaCl, pH 7.5/PREP: 25 mM Tris, 0.25 M NaCl, pH 7.5/DPPIV: 25 mM Tris, pH 8.0) to one row of a 96-well plate. • 3. […] Dilute the enzymes into their appropriate assay buffers. The final enzyme concentrations should be 0.1, 1.2, and 0.6 nM for DPPIV, FAP and PREP respectively. Add 180 μL to each well needed in columns 2-10. Column 1(A,B,C) should be prepared with 200 μl of appropriate assay buffer as control. Column 1(D,E,F,G,H) should be prepared with 20 μl of appropriate assay buffer and 180 ul enzyme as no inhibitor control. • 5. Add 20 μL of the compound of interest from the dilution plate prepared in step 2 to columns 2-10 of the assay plate where appropriate. Each sample should be tested in triplicate. Allow this to incubate for 10 minutes at room temperature, shaking the plate for the first two minutes. • 6. Add 10 μL of 20× substrate prepared in step 3 to each well and allow this to incubate for 15 minutes at room temperature, shaking the plate for the first two minutes. • 7. Read the fluorescence at λex: 380, λem: 460. (DPcore=[dAla|dSer|Gly]-[boroPro|Pro-nitrile], XXaa=alpha-amino acid)

[2] = molecular target: recombinant human prolyl oligopeptidase (PREP) (Homo sapiens (Human), UniProt P48147); assay: In vitro assay prolyl oligopeptidase IC50 (Example 21); assay type: biochemical
Procedure: as §1, §2

[3] = molecular target: recombinant human dipeptidyl peptidase IV (DPPIV) (Homo sapiens (Human), UniProt P27487); assay: In vitro assay dipeptidyl peptidase IV IC50 (Example 21); assay type: biochemical
Procedure: as §1, §2

[4] = Degradation in aqueous solution of pH about 3 during HPLC purification and lyophilization; details: during HPLC purification and subsequent lyophilization
[5] = Radiochemical purity over time at room temperature (radio-HPLC); assay type: physicochemical
Procedure: The labeling efficiency was analyzed by instant thin layer chromatography (iTLC) and was typically >98%. For iTLC analysis, 1 μL of diluted labeling solution was applied to a strip of iTLC-SA chromatography paper (Agilent P/N A120B12, 114×2.5 mm) and developed in 0.1M citrate buffer (8 cm solvent migration) to assess free ^177Lu (Rf>0.5) and [^177Lu]-6555 (Rf˜0). The iTLC strips were analyzed using an Eckert & Ziegler AR-2000 Radio-TLC Imaging Scanner. The radiochemical purity was analyzed by high performance chromatography (HPLC) and was typically >90%. Briefly, the product was analyzed using a Phenomenex Luna 3.0 μm C18(2), 100 Å, 150 mm×4.6 mm column. Eluent A: 50 mM ammonium acetate in water, eluent B: acetonitrile. Gradient: 2% B from 0-5 min; 2% to 26% B from 5-20 min; 26% to 98% B from 20-25 min; 98% to 2% B from 25-26 min; 2% B from 26-30 min. Flow rate: 1.0 mL/min, Radio-HPLC detector: NaI (Eckert & Zeigler FC-1000), UV: 215 nm. The radiochemical purity remained >90% for three days at room temperature.
(§3) The above depicted radiopharmaceutical [^177Lu]-6952 can be prepared as described in Example 20 using the radiochemical precursor 6952 (Example 21 above). The labeling efficiency was analyzed by instant thin layer chromatography (iTLC) and was typically >98%. […] The iTLC strips were analyzed using an Eckert & Ziegler AR-2000 Radio-TLC Imaging Scanner. The radiochemical purity was analyzed by high performance chromatography (HPLC) and was typically >90%. Briefly, the product was analyzed using a Phenomenex Luna 3.0 μm C18(2), 100A, 150 mm×4.6 mm column. […]
as §3, with “The” for “The above depicted radiopharmaceutical [^177Lu]-6952 can be prepared as described in Example 20 using the radiochemical precursor 6952 (Example 21 above). The”, “>95%.” for “>98%.”, “>95%.” for “>90%.”
The labeling efficiency was analyzed by instant thin layer chromatography (iTLC) and was typically >95%. […]

[6] = for three days at room temperature, formulation with N-acetyl methionine

Chain of recombinant human FAP (Q12884 whole entry): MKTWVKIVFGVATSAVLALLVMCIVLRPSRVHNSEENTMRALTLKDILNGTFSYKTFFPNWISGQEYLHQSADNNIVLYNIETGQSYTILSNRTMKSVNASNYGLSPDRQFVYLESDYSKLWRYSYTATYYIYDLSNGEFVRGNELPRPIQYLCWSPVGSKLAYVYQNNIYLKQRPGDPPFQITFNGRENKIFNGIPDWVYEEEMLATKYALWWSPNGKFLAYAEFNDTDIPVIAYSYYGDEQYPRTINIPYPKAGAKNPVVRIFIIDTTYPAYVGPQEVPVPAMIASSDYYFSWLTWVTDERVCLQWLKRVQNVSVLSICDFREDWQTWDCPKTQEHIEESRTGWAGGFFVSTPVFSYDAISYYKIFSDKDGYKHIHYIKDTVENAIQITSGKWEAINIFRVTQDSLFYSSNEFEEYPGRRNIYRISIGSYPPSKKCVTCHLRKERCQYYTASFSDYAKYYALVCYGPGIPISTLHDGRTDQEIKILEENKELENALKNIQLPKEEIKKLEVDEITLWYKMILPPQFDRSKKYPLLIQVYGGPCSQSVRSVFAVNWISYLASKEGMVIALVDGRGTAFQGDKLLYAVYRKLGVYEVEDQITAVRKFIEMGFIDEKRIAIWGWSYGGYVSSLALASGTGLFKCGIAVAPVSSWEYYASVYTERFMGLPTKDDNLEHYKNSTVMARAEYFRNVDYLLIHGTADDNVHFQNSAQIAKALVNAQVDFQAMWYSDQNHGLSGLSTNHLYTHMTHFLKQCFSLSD
Chain of recombinant human fibroblast activation protein (FAP) (Q12884 whole entry): as above
Chain of recombinant human dipeptidyl peptidase IV (DPPIV) (P27487 whole entry): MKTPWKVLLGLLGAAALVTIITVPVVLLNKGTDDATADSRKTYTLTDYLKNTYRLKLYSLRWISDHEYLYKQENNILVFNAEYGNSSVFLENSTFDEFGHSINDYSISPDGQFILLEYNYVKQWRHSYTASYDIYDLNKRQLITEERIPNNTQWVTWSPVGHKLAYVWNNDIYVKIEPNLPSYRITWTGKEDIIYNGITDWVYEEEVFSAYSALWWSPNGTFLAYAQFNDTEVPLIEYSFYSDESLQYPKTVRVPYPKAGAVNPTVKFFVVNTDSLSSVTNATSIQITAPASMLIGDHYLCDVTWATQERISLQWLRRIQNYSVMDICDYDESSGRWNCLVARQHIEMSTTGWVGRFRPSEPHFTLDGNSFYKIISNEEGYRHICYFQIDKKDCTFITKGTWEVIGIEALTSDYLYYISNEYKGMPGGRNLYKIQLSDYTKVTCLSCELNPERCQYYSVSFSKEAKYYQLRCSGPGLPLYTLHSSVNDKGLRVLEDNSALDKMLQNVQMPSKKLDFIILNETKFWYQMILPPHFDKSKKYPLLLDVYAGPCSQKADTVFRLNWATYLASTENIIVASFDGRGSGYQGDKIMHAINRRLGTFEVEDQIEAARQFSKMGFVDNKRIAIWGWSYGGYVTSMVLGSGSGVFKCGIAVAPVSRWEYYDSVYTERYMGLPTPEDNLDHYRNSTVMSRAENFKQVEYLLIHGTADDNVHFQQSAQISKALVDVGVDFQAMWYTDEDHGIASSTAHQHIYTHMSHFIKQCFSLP
Chain of recombinant human prolyl oligopeptidase (PREP) (P48147 whole entry): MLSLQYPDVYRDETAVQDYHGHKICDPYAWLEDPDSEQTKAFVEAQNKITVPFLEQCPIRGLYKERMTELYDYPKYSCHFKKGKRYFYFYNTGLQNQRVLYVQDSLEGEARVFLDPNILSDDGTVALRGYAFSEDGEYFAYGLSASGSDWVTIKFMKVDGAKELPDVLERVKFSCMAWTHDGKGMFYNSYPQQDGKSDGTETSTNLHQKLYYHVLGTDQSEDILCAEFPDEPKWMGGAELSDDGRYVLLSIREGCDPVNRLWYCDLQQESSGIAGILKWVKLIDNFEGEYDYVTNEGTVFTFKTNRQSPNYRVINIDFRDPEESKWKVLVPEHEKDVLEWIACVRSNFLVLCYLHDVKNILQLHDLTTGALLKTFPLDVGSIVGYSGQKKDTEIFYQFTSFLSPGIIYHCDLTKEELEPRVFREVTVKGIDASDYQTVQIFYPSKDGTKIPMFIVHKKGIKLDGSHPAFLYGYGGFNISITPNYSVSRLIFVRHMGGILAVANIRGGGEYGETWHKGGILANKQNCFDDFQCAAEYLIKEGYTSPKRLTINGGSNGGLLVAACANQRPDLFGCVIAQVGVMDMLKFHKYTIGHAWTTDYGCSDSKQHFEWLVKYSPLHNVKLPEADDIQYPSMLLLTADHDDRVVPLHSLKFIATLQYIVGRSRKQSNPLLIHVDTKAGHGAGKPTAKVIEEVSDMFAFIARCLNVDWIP

Row | IC50 (recombinant human FAP) [nM] | IC50 [1] [nM] | Compound | also measured
1 | 8.8 | 8.8 | C[C@@H](NC(=O)c1ccc(NNC(=O)CCNC(=O)CN2CCN(CC(=O)O)CCN(CC(=O)O)CCN(CC(=O)O)CC2)cc1)C(=O)N1CCC[C@H]1B(O)O [6488S, DOTA-betaAla-HyBz-D-Ala-boroPro] | 
2 | 6.9 |  | CC(C)[C@H](NC(=O)CNC(=O)CN1CCN(CC(=O)O)CCN(CC(=O)O)CCN(CC(=O)O)CC1)C(=O)N[C@H](C)C(=O)N1CCC[C@H]1B(O)O [compound 6521, DOTA-Gly-Val-D-Ala-boroPro] | IC50 ([1]; Z-Gly-Pro-AMC, 1.2 nM enzyme): 6.9 nM
3 | 3.2 | 2.9 | N[C@@H](CCCCNC(=O)CN1CCN(CC(=O)O)CCN(CC(=O)O)CCN(CC(=O)O)CC1)C(=O)N1CCC[C@H]1B(O)O [compound 6549, Lys(DOTA)-boroPro] | 
4 |  |  | C[C@@H](NC(=O)c1ccc(CNC(=O)CN2CCN3CCN4CCN(CC2)CC(=O)O[CH2][Ga]([CH2]COC(=O)C3)[CH2]COC(=O)C4)cc1)C(=O)N1CCC[C@H]1B(O)O [[^68Ga]-6555] | radiochemical purity remained ([5]; for 4 hours at room temperature): > 95%
5 | 2.4 | 2.4 | C[C@@H](NC(=O)c1ccc(CNC(=O)CN2CCN(CC(=O)O)CCN(CC(=O)O)CCN(CC(=O)O)CC2)nc1)C(=O)N1CCC[C@H]1B(O)O [compound 6556, DOTA-aminomethyl-Nic-D-Ala-boroPro] | 
6 | 1.6 | 1.6 | C[C@@H](NC(=O)c1ccc(NC(=O)CN2CCN(CC(=O)O)CCN(CC(=O)O)CCN(CC(=O)O)CC2)cc1)C(=O)N1CCC[C@H]1B(O)O [compound 6572, DOTA-PABA-D-Ala-boroPro] | 
7 | 0.8 |  | C[C@@H](NC(=O)c1ccc(NNC(=O)CCCNC(=O)CN2CCN(CC(=O)O)CCN(CC(=O)O)CCN(CC(=O)O)CC2)cc1)C(=O)N1CCC[C@H]1B(O)O [6489S, DOTA-GABA-HyBz-D-Ala-boroPro] | 
8 |  |  | C[C@@H](NC(=O)c1ccc(CNC(=O)CN2CCN3CCN4CCN(CC2)CC(=O)O[CH2][Lu]([CH2]COC(=O)C3)[CH2]COC(=O)C4)cc1)C(=O)N1CCC[C@H]1B(O)O [[^177Lu]-6555] | radiochemical purity remained [5, 6]: > 90%
9 |  |  | C[C@@H](NC(=O)[C@H]1CC[C@H](CNC(=O)CN2CCN3CCN4CCN(CC2)CC(=O)O[CH2][Lu]([CH2]COC(=O)C3)[CH2]COC(=O)C4)CC1)C(=O)N1CCC[C@H]1B(O)O [[^177Lu]-6952] | radiochemical purity remained [5, 6]: > 90%

Row | Compound | IC50 (recombinant human FAP) [nM] | IC50 [1] [nM] | also measured
10 | C[C@@H](NC(=O)c1ccc(CNC(=O)CN2CCN3CCN4CCN(CC2)CC(=O)[O][Ga]([O]C(=O)C3)[O]C(=O)C4)cc1)C(=O)N1CCC[C@H]1B(O)O [6555GA] |  | 55 | IC50 [2]: 3600 nM; IC50 [3]: > 100000 nM; degradation in aqueous solution [4]: did not observe any sign of degradation
11 | DOTA[(Cu(II)]-Ser-D-Ala-boroPro [6509CU] | 128 |  | IC50 ([1]; Z-Gly-Pro-AMC, 1.2 nM enzyme): 128 nM
12 | C[C@@H](NC(=O)c1ccc(NNC(=O)CNC(=O)CN2CCN(CC(=O)O)CCN(CC(=O)O)CCN(CC(=O)O)CC2)cc1)C(=O)N1CCC[C@H]1B(O)O [6487S, DOTA-Gly-HyBz-D-Ala-boroPro] | 2.1 |  | 
13 | C[C@@H](NC(=O)c1ccc(NC(=O)CN2CCN3CCN(CC(=O)O)CCN(CC2)CC(=O)[O][Cu][O]C(=O)C3)cc1)C(=O)N1CCC[C@H]1B(O)O [6572CU, DOTA[Cu(II)]-PABA-D-Ala-boroPro] | 12.6 |  | 
14 | C[C@@H](NC(=O)c1ccc(NNC(=O)CCNC(=O)CN2CCN3CCN(CC(=O)O)CCN(CC2)CC(=O)[O][Cu][O]C(=O)C3)cc1)C(=O)N1CCC[C@H]1B(O)O [compound 6488, DOTA[Cu]-betaAla-HyBz-D-Ala-boroPro] | 34.3 | 34.3 | 
15 | C[C@@H](NC(=O)c1ccc(NNC(=O)CN2CCN3CCN(CC(=O)O)CCN(CC2)CC(=O)[O][Cu][O]C(=O)C3)cc1)C(=O)N1CCC[C@H]1B(O)O [compound 6481, DOTA[Cu(II)]-HyBz-D-Ala-boroPro] | 10.3 |  | 
